We go through twelve molecules from patent US5110933A, “Salts of 3-azabicyclo[3.3.1]nonanes as antiarrhythmic agents, and precursors thereof” (Board of Regents of Oklahoma State University, priority 1990, dated 1992).

Data set [1] relates to Sustained ventricular tachycardia induced by electrical pacing of infarcted dog heart. In words: Antiarrhythmic activity on sustained ventricular tachycardia induced by electrical pacing of infarcted dog heart. Particulars: for ability to reduce the rate of the induced VT or to eliminate the same: 3 mg/kg as well as 6 mg/kg. In kind it is in vivo. An excerpt: To illustrate the useful biological properties of the compounds described in this invention, selected derivatives were screened for antiarrhythmic activity using dog models. The clinically used agent lidocaine and 7-benzyl-3-thia-7-azabicyclo[3.3.1]nonane hydroperchlorate (48) [U.S. Pat. No. 4,581,361] were employed as standards as basis for comparison. A small infarction was created in an area of the dog heart and thereafter electrical pacing was initiated to generate a sustained ventricular tachycardia (VT). This irregular beating pattern of the heart results in a reduction of the pumping capability of the heart in a manner now accepted as resembling symptoms observed in humans during a heart attack (see: Scherlag, B. J. et. al., Am. J. Cardiol. 1983, 51, 207; Bailey, B. R. et. al., J. Med. Chem. 1984, 27, 759; Thompson, M. D. et. al., J. Med. Chem. 1987, 30, 780; U.S. Pat. No. 4,581,361; and U.S. Pat. No. 4,778,892 for further details, said references incorporated herein for such purposes). The effects of the selected compounds in terms of ability to reduce the rate of the induced VT or to eliminate the same (abolish the VT completely or at least not allow it to be sustained) is then evaluated and compared to lidocaine or to 7-benzyl-3-thia-7-azabicyclo[3.3.1]nonane hydroperchlorate (48).

Data set [2] can be described thus: Tissue distribution of radioactivity after oral administration of (48)*. Also on record: species or system rats. To be noted: rat, in vivo. An excerpt:
In order to determine the potential viability of members of the above family to act as useful antiarrhythmic agents in vivo, a pharmacokinetic and metabolism study was undertaken using a representative example from the above compounds. The techniques employed in these preliminary studies are well documented, but a summary of pharmacokinetic procedures can be found in: J. D. Baggot, "Principals of Drug Disposition in Domestic Animals: The Basis of Veterinary Clinical Pharmacology", W. B. Saunders Company, Philadelphia, 1977. These studies were conducted using ^14 C-labelled (48)* [Prepared by the method of Zisman, Berlin, et al. J. Labelled Compounds and Radiopharmaceuticals, In Press (1989)] in Sprague-Dawley rats.
Tissue distribution of (48)* was studied by measuring the radioactivity in selected organs collected from rats sacrificed at several time intervals after oral administration. […] These observations correlate well with the high volume of distribution calculated from pharmacokinetic data.

Details of data set [3]: species or system rats. To be noted: rat, in vivo, po.

For `COC1(OC)C2CSCC1CN(Cc1ccccc1)C2` [(11), 7-Benzyl-9,9-dimethoxy-3-thia-7-azabicyclo[3.3.1]-nonane Hydroperchlorate], the “ability to reduce the rate of the induced VT or to eliminate the same” value (“ability to reduce the rate” for short) in data set [1] is listed as “extremely effective in eliminating the induced VT”.
Take `COC1(OC)C2CN(Cc3ccccc3)CC1CN(Cc1ccccc1)C2` [(12), 3,7-Dibenzyl-9,9-dimethoxy-3,7-diazabicyclo[3.3.1]nonane Hydroperchlorate]: the “Effect on SVT” value in data set [1] (3mg/kg) and in data set [1] (6mg/kg) was “Reduced” throughout. The “ability to reduce the rate” value in data set [1] is reported as “reduced the rates of the induced VT but did not abolish them”.
As for `c1ccc(CN2CC3CSCC(C3)C2)cc1` [(48)], in data set [2], the “radioactivity in liver and kidney” value is “High levels of radioactivity”; the “radioactivity in the heart” value was “Reasonably high concentrations of radioactivity”. The excretion in urine entry in data set [3] is “most of the dose was excreted in the form of metabolites”.
`O=C1C2CC(CN(Cc3ccccc3)C2)CN1Cc1ccccc1` (stereo not drawn) [(17), 3,7-Dibenzyl-3,7-diazabicyclo[3.3.1]nonan-2-one]: the “Effect on SVT” value in data set [1] (3mg/kg) and in data set [1] (6mg/kg) was “Reduced” each time. In data set [1], the “ability to reduce the rate” value is listed as “reduced the rates of the induced VT but did not abolish them”.
With `CC(C)N1CC2CC(CN(Cc3ccccc3)C2)C1` [(5), 7-Benzyl-3-isopropyl-3,7-diazabicyclo[3.3.1]nonane Hydroperchlorate], the “ability to reduce the rate” value in data set [1] was “extremely effective in eliminating the induced VT”.
On to `CC(C)N1CC2CSCC(C2)C1` [(8), 7-Isopropyl-3-thia-7-azabicyclo[3.3.1]nonane Hydroperchlorate], for which the “Effect on SVT” value in data set [1] (3mg/kg) and in data set [1] (6mg/kg) was “No action” in each case. Further, in data set [1], the “ability to reduce the rate” value is given as “exhibited little effect on the dog model”.
In the case of “Ethyl 3-Benzyl-3-azabicyclo[3.3.1]nonane-7-(endo)-carboxylate Hydroperchlorate [(13)]”, in data set [1], the “ability to reduce the rate” value is “extremely effective in eliminating the induced VT”.
With `[O-][S+]1CC2CC(CN(Cc3ccccc3)C2)C1` (stereo not drawn) [(10), 7-Benzyl-3-thia-7-azabicyclo[3.3.1]nonane 3-Oxide Hydroperchlorate], the “Effect on SVT” value in data set [1] (3mg/kg) and in data set [1] (6mg/kg) was “Reduced rate of VT” in each case. The “ability to reduce the rate” value in data set [1] is given as “reduced the rates of the induced VT but did not abolish them”.
With `COc1ccc(C(=O)N2CC3CC(C2)CN(C(C)C)C3)cc1OC.[O-][Cl+3]([O-])([O-])O` [(3), 3-(3',4'-Dimethoxybenzoyl)-7-isopropyl-3,7-diazabicyclo[3.3.1]nonane Hydroperchlorate], in data set [1], the “ability to reduce the rate” value was “extremely effective in eliminating the induced VT”.
The same measure, in the same setting: the value for “Ethyl 3-Benzyl-9,9-(1,3-dithiolan-2-yl)-3-azabicyclo[3.3.1]nonane-7-(endo)-carboxylate Hydroperchlorate [(14)]” was “extremely effective in eliminating the induced VT”.
As to `O=C(c1ccccc1)N1CC2CSCC(C2)C1` [(15)], the “Effect on SVT” value in data set [1] (3mg/kg) and in data set [1] (6mg/kg) was “Reduced” throughout. The “ability to reduce the rate” value in data set [1] is “reduced the rates of the induced VT but did not abolish them”.
For `CC(C)N1CC2CC(CN(C(=O)c3ccccc3)C2)C1` [(1), 3-Benzoyl-7-isopropyl-3,7-diazabicyclo[3.3.1]nonane Hydroperchlorate], in data set [1], the “ability to reduce the rate” value is given as “extremely effective in eliminating the induced VT”.
